We go through ten molecules from US11008323B2, “Substituted tricyclic 1,4-benzodiazepinone derivatives as allosteric modulators of group II metabotropic glutamate receptors” (Domain Therapeutics, priority 2015, dated 2021).

One data set deals with striatal primary neurons. Put plainly: NMDA-induced neurotoxicity assay on striatal primary neurons (MTT test). The class given is cell-based, mouse. Conditions: 24 hours. The protocol: Primary mouse neurons were incubated with vehicle or NMDA (60 μM)+vehicle or example 63 or LY379268 (mixed mGluR2/3 agonist used as positive control) for 24 hours. Tests were performed in triplicate. Neuron viability was measured using a MTT test.

The next data set concerns the target T1, human mGluR3 (hmGluR3) (Homo sapiens, UniProt Q14832).
T1 construct: expressed in transfected cells; host or cells: HEK-293 cells, transient co-transfection by electroporation
Put plainly: Human mGluR3 positive allosteric modulator evaluation using Ca++ functional assay. The class given is cell-based. Conditions: hmGluR3 transiently over-expressed in HEK-293 cells; stimulated by EC50 glutamate concentration; intracellular Ca2+ (Fluo4AM, FLIPR Tetra). Summed up:
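Calcium flux (Fluo4, ex 485/em 525 nm) recorded first 10 min with compound alone, then 3 min after an EC50 glutamate challenge, giving agonist and PAM EC50 from 20-concentration sigmoidal fits. Receptor was transiently co-transfected in HEK-293 with chimeric G protein and glutamate transporters.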

Another data set has as its system cortical primary neurons. In words: NMDA-induced neurotoxicity assay on cortical primary neurons (MTT test). The class given is cell-based, mouse. The settings on record: 24 hours. Here is the method: Primary mouse neurons were incubated with vehicle or NMDA (60 μM)+vehicle or example 207 or LY379268 (mixed mGluR2/3 agonist used as positive control) for 24 hours. Tests were performed in triplicate. Neuron viability was measured using a MTT test.

Setting [1] is: alone, in absence of NMDA challenge, 30 nM to 30 μM.

Each structure is given as a SMILES string.

What is called EC50 is the concentration at which the effect is half-maximal. Lower therefore signals a more potent agent. What is called melting point is the temperature, or range, at which the solid turns liquid.

T1 sequence (Q14832 23-879): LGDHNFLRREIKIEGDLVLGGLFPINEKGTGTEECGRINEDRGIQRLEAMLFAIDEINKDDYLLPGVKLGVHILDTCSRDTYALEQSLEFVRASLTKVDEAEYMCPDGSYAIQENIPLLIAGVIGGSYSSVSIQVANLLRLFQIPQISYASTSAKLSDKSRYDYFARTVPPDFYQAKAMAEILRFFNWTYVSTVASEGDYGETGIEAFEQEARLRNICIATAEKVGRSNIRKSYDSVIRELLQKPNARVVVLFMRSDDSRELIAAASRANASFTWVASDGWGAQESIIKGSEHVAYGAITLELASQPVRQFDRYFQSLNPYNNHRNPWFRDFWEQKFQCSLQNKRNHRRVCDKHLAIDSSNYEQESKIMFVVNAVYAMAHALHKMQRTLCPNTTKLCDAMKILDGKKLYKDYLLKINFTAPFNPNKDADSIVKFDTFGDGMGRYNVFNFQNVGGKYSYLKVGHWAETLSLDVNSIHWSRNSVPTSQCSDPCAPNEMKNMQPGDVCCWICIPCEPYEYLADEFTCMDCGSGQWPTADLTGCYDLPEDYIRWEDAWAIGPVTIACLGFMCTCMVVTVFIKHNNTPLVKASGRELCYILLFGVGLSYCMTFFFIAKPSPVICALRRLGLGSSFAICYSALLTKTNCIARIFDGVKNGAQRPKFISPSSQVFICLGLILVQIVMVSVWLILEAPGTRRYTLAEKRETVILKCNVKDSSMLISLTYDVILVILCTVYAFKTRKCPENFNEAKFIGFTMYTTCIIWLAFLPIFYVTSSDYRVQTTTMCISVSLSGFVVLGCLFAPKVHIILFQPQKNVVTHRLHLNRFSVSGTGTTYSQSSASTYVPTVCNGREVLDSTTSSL

Take `CN1C(=O)c2cccn2-c2cc(-c3ccc(F)cn3)ccc2C12CC2` [Example 63, 5-Methyl-9-(5-fluoropyridin-2-yl)-spiro[benzo[f]pyrrolo[1,2-a][1,4]diazepine-6,1′-cyclopropan]-4(5H)-one]: the melting point lay within 148 to 156 °C. Besides, the “toxicity induced by NMDA (neuroprotection), striatal primary neurons” value in the data set on striatal primary neurons (NMDA 60 μM, effect tending to disappear at 30 μM) was “reduces in a dose-dependent manner the toxicity induced by NMDA up to 10 μM”. Besides, the “toxicity on striatal primary neuron viability” value with striatal primary neurons (setting [1]) is given as “no toxicity”. Also, the EC50 at human mGluR3 (hmGluR3) is under 100 nM.

For `[2H]C([2H])([2H])N1C(=O)c2cc(-c3nnco3)cn2-c2cc(-c3ccc(F)nc3)ccc2C12CC2` [Example 188], the melting point was over 250 °C. The molecule further registered an EC50 at human mGluR3 (hmGluR3) of under 100 nM.

As to `CN(C)c1ccc(-c2ccc3c(c2)-n2cc(-c4nnco4)cc2C(=O)N(C)C32CC2)cn1` [Example 190], the melting point is over 250 °C. For the same molecule, the concentration giving a half-maximal response (EC50) on human mGluR3 (hmGluR3) was under 100 nM.

`CN1C(=O)c2cc(-c3nnco3)cn2-c2cc(-c3cccc(C#N)c3)ccc2C12CC2` [Example 192] returned a melting point of over 250 °C. At human mGluR3 (hmGluR3), this molecule gave an EC50 of under 100 nM.

As for `CN1C(=O)c2cc(-c3nnco3)cn2-c2cc(-c3cccnn3)ccc2C12CC2` [Example 193], the melting point is over 250 °C. The molecule also showed an EC50 on human mGluR3 (hmGluR3) of 100 to 1000 nM.

`Cc1ccc(-c2ccc3c(c2)-n2cc(CO)cc2C(=O)N(C)C32CC2)cn1` [Example 202] had a melting point of 144 to 154 °C. Besides, at human mGluR3 (hmGluR3), the EC50 is under 100 nM.

The molecule `COCc1cc2n(c1)-c1cc(-c3ccc(F)nc3)ccc1C1(CC1)N(C)C2=O` [Example 207] came in with a melting point of 71 to 80 °C. Further, the EC50 on human mGluR3 (hmGluR3) is under 100 nM. Further, the “toxicity induced by NMDA (neuroprotection), cortical primary neurons” value in the data set with cortical primary neurons (NMDA 60 μM, effect tending to disappear at higher concentrations) was “reduces in a dose-dependent manner the toxicity induced by NMDA up to 1 μM”. Further, the “toxicity on cortical primary neuron viability” value with cortical primary neurons (setting [1]) is “no toxicity”.

For `CN1C(=O)c2cccn2-c2ccccc2C1(C)C` [Example 221, 5,6,6-Trimethyl-5,6-dihydro-benzo[f]pyrrolo[1,2-a][1,4]diazepin-4-one], the melting point lay within 127 to 130 °C. For the same molecule, the EC50 at human mGluR3 (hmGluR3) was over 1000 nM.

Consider `N[C@@]1(C(=O)O)CO[C@H]2[C@H](C(=O)O)[C@H]21` [LY379268], for which the “NMDA-induced toxicity, striatal primary neurons” value with striatal primary neurons (at 1 μM, NMDA 60 μM) was “decreases NMDA-induced toxicity”. Also, in the data set on striatal primary neurons (reference alone), the “toxicity alone, striatal primary neurons” value is “no toxicity alone”. In the data set on cortical primary neurons (at 1 μM, NMDA 60 μM), the “NMDA-induced toxicity, cortical primary neurons” value is on record as “decreases NMDA-induced toxicity”. The “toxicity alone, cortical primary neurons” value in the data set on cortical primary neurons (reference alone) is reported as “no toxicity alone”.

In the case of `CN[C@H](CC(=O)O)C(=O)O` [NMDA, N-methyl-D-aspartate], the “reduction of the neuron viability, striatal primary neurons” value with striatal primary neurons (NMDA 60 μM + vehicle) is about 70%. For the same molecule, the “reduction of the neuron viability, cortical primary neurons” value in the data set on cortical primary neurons (NMDA 60 μM + vehicle) is listed as about 50%.
